Results as given in patent US20150191446A1, “SELENO-COMPOUNDS AND THERAPEUTIC USES THEREOF” (THE HEART RESEARCH INSTITUTE LTD, priority 2010, published 2015).

Legend:
human plasma = assay: 3-chlorotyrosine formation by HOCl in human plasma (LCMS); type: biochemical; settings: FIG. 5B
Protocol: (§1) Varying concentrations of Se-sugars (1.0 mM-0.05 mM) were added to solutions containing 0.1 mg·mL^−1 of protein (BSA or Plasma).
(§2) 150 μL of each sample (Se1HSA1—Control) were added to 50 μL of 3 mM HOCl. Samples, with a final volume of 200 μL, were placed in a glass vial (8×40 mm, 1 mL, No. 98212, Alltech) labeled by etching with a diamond tipped pen or engraver. Proteins (0.1 mg in 200 μL) were delipidated and precipitated by the addition of 25 μL 0.3% (w/v) deoxycholic acid and 50 μL of 50% (w/v) TCA, with incubation on ice for 5 min. The glass vials containing samples were placed in 1.5 mL centrifuge tubes for 2 minutes at 9000 rpm at 5° C. (Eppendorf 5415R centrifuge) to pellet protein. Protein pellets were washed once with 5% (w/v) TCA, and twice with ice cold acetone (stored in […]) with 2 min, 9000 rpm, spins between washes in each case to settle pellets. The samples were then transferred to PicoTag hydrolysis vessels before the addition of 150 μL of 6 M HCl and 50 μL of thioglycolic acid into the PicoTag vessel and placed under vacuum in the oven at 110° C. for 16-18 hours. The PicoTag vessels were removed from oven and allowed to cool before releasing vacuum. […]
(§3) L-Tyrosine, 3-chlorotyrosine and di-tyrosine were analysed by LC-MS in the positive ion mode with a Finigan LCQ Deca XP ion-trap instrument coupled to a Finigan surveyor HPLC system. […]

BSA = assay: 3-chlorotyrosine formation by HOCl in BSA (LCMS); type: biochemical, bovine; settings: FIG. 5A
Protocol: as §1, §2, §3

[1] = tested on: wounds in wildtype C57/BL6 mice; assay: Circular incision wound model, topical treatment, wildtype mice; type: in vivo, mouse; settings: for pus formation in wound / wound healing (appearance): topical; for wound healing (appearance): FIG. 25, 26
Protocol: In the experimental testing according to the present invention, pairs of circular incision wounds on the backs of wildtype C57/BL6 and db−/db− mice (n=12 each) were treated daily with a seleno-compound according to the current invention or vehicle, topically for 10 days. Wound closure, vascular perfusion and tissue histology were assessed.

[2] = ThioGlo assay, recycling of selenoxides by thiols: glutathione; settings: GSH samples
Protocol: (§4) The purpose of these experiments was to determine whether thiols could reduce the selenoxides formed on oxidation of the seleno compounds. The ThioGlo assay was used to monitor the loss of thiol groups upon addition of selenoxides as this agent produces a fluorescent product in the presence of reduced thiols.
(§5) The ThioGlo reagent was prepared by diluting 30 μL of a stock solution (5 mg in 5.070 mL acetonitrile) in 2970 μL of 0.1 M pH 7.4 phosphate buffer. Preparation of the developing reagent was performed immediately prior to addition to standards or samples. Standard curves were prepared by addition of varying volumes, between 0 and 50 μL, of 10 μM GSH solution to wells in a 96-well plate. The volume in each well was made up to 50 μL with 0.1 M pH 7.4 phosphate buffer. 50 μL of ThioGlo•reagent was added to each standard, and incubated in the dark for 5 minutes. The fluorescence was measured using a PerSeptive Biosystems CytoFluor II fluorescence multi-well plate reader with λex=360 nm λem=530 nm. Standards using 10 μM Cys and 2 mg/mL BSA were produced in the same method.
(§6) Solutions of 8 μM SeMetO were produced by mixing 20 μM SeMet and 16 μM HOCl together, and incubating for 30 minutes. […] The fluorescence was measured using the PerSeptive Biosystems CytoFluor II fluorescence multi-well plate reader with λex=360 nm λem=530 nm. […]

bovine serum albumin = bovine serum albumin (Bos taurus, UniProt P02769); assay: ThioGlo assay, recycling of selenoxides by thiols: bovine serum albumin; settings: thiol group on bovine serum albumin
Protocol: as §4, §5, §6

[3] = ThioGlo assay, recycling of selenoxides by thiols: cysteine; settings: Cys samples
Protocol: as §4, §5, §6

Sequence of bovine serum albumin (P02769 25-607): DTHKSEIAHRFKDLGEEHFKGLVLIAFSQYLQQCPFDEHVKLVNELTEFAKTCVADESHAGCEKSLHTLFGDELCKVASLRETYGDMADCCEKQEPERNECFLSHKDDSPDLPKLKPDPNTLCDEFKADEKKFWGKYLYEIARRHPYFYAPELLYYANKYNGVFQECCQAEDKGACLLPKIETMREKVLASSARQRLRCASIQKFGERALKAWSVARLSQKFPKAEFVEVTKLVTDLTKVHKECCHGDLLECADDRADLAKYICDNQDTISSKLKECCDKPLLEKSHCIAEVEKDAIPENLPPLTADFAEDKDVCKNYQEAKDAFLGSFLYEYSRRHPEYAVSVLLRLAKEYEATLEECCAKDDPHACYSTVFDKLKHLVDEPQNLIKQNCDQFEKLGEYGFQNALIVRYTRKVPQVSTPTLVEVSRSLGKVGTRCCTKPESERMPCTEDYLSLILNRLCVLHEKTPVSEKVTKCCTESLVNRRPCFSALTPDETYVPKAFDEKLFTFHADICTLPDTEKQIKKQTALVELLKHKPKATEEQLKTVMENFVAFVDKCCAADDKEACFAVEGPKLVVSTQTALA

SMILES	wound healing (appearance) ([1]; same dose)	amount of thiols after selenoxide addition [2]	reduction of selenoxide by thiol group (bovine serum albumin)	amount of thiols after selenoxide addition [3]	further results
OCC1[Se]CC(O)C(O)[C@@H]1O (stereo partly drawn) [compound 4, 1,5-Anhydro-5-seleno-L-gulitol]	–	–	–	–	3-chloro-tyrosine formation by HOCl (human plasma): effectively preventing; 3-chloro-tyrosine formation by HOCl (BSA): effectively preventing
O[C@@H]1C[Se]C[C@H]1O (racemic) [DHSred, DL-trans-3,4,-Dihydroxy-L-selenolane]	inferior healing	–	–	–	inflammatory response during wound healing ([1]; FIG. 25): resulted in an inflammatory response; pus formation in wound ([1]; same dose, FIG. 25): development of pus; wound healing (appearance) ([1]; same dose, listed as DL-trans-3,4,-Dihydroxy-L-selenolane): reduced wound healing; pus formation in wound ([1]; same dose, FIG. 25, listed as DL-trans-3,4,-Dihydroxy-L-selenolane): observable pus formation; scar tissue formed during wound healing ([1]; wildtype mice, same dose, FIG. 26): pronounced scar tissue build up
OC[C@@H](O)[C@@H]1[Se]C[C@@H](O)[C@H]1O [compound 38, 1,4.-Anhydro-4-seleno-D-talitol]	improved wound closure and healing	–	–	–	–
O=[Se]1C[C@@H](O)[C@@H](O)[C@@H]1[C@H](O)CO (stereo partly drawn) [SeTalO]	–	dose dependent decreases	less marked	dose dependent decreases	–
C[Se](=O)CC[C@H](N)C(=O)O (stereo partly drawn) [SeMetO, selenomethionine oxide]	–	dose dependent decreases	less marked	dose dependent decreases	–
